{"source": "patent US5665882A", "about": "“Pyridyl ethylation of lactams” (Merck & Co., Inc., priority 1996, dated 1997)", "tested_on": "ADP-stimulated platelets", "experiment": "ADP-stimulated platelet aggregation assay (gel-filtered human platelets)", "format": "cell-based", "details": "inhibition of ADP-stimulated platelet aggregation by 50% relative to control; gel-filtered human platelets 2×10^8 per ml, fibrinogen 100 ug/ml, Ca^2+ 1 mM, 10 mM ADP, 37° C.", "excerpt": "The activity of these fibrinogen receptor antagonists is illustrated below. One test used to evaluate fibrinogen receptor antagonist activity is based on evaluation of inhibition of ADP-stimulated platelets. Aggregation requires that fibrinogen bind to and occupy the platelet fibrinogen receptor site. Inhibitors of fibrinogen binding inhibit aggregation. In the ADP-stimulated platelet aggregation assay used to determine inhibition associated with these fibrinogen receptor antagonists, human platelets are isolated from fresh blood, collected into acid citrate/dextrose by differential centrifugation followed by gel filtration on Sepharose 2B in divalent ion-free Tyrode's buffer (pH 7.4) containing 2% bovine serum albumin.\nPlatelet aggregation is measured at 37° C. in a Chronolog aggregometer. The reaction mixture contains gel-filtered human platelets (2×10^8 per ml), fibrinogen (100 micrograms per ml (ug/ml)), Ca^2+ (1 mM), and the fibrinogen receptor antagonists tested. The aggregation is initiated by adding 10 mM ADP 1 minute after the other components are added. The reaction is then allowed to proceed for at least 2 minutes. The extent of inhibition of aggregation is expressed as the percentage of the rate of aggregation observed in the absence of inhibitor. The IC50 is the dose of a particular compound inhibiting aggregation by 50% relative to a control lacking the compound. […]", "note": "pIC50: −log10 of the molar value.", "data": [{"molecule": "C[C@H](CC(=O)O)NC(=O)CN1CCC[C@@H](CCC2CCNCC2)C1=O", "values": [{"measurement": "pIC50", "value": 4.00}]}]}
